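Values below derive from 48-hour exposures of cells grown in 96-well plates, with endpoints linearly interpolated between the two concentrations bracketing the appropriate inhibition level. The concentration for full growth arrest is given as TGI.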
Columns and labels:
Assay in all cases: NCI tumour cell line growth inhibition, 48 h
SK-MEL-5 melanoma = tested on: SK-MEL-5 melanoma
SW-620 colon = tested on: SW-620 colon
LOX IMVI melanoma = tested on: LOX IMVI melanoma
KM12 colon = tested on: KM12 colon
T-47D breast = tested on: T-47D breast
COLO 205 colon = tested on: COLO 205 colon
OVCAR-8 ovarian = tested on: OVCAR-8 ovarian
UO-31 renal = tested on: UO-31 renal
NCI-H522 lung = tested on: NCI-H522 lung
NCI-H460 lung = tested on: NCI-H460 lung
SNB-19 CNS = tested on: SNB-19 CNS
IGROV1 ovarian = tested on: IGROV1 ovarian
SK-MEL-28 melanoma = tested on: SK-MEL-28 melanoma
PC-3 prostate = tested on: PC-3 prostate
UACC-62 melanoma = tested on: UACC-62 melanoma
MDA-MB-435 = tested on: MDA-MB-435
U251 CNS = tested on: U251 CNS
DU-145 prostate = tested on: DU-145 prostate
NCI/ADR-RES ovarian = tested on: NCI/ADR-RES ovarian
MALME-3M melanoma = tested on: MALME-3M melanoma
SF-539 CNS = tested on: SF-539 CNS
BT-549 breast = tested on: BT-549 breast
A549 NSCLC = tested on: A549 NSCLC
OVCAR-3 ovarian = tested on: OVCAR-3 ovarian
786-0 renal = tested on: 786-0 renal
HS 578T breast = tested on: HS 578T breast
EKVX NSCLC = tested on: EKVX NSCLC
HT29 colon = tested on: HT29 colon
MDA-MB-231 breast = tested on: MDA-MB-231 breast
UACC-257 melanoma = tested on: UACC-257 melanoma
HCT-15 colon = tested on: HCT-15 colon
TK-10 renal = tested on: TK-10 renal
CCRF-CEM leukemia = tested on: CCRF-CEM leukemia
NCI-H226 lung = tested on: NCI-H226 lung
A498 renal = tested on: A498 renal
RPMI-8226 leukemia = tested on: RPMI-8226 leukemia
SR leukemia = tested on: SR leukemia
HCT-116 colon = tested on: HCT-116 colon
MDA-N = tested on: MDA-N
HCC-2998 colon = tested on: HCC-2998 colon
SK-OV-3 ovarian = tested on: SK-OV-3 ovarian
RXF 393 renal = tested on: RXF 393 renal
OVCAR-5 ovarian = tested on: OVCAR-5 ovarian
HOP-92 NSCLC = tested on: HOP-92 NSCLC
HOP-62 NSCLC = tested on: HOP-62 NSCLC
HL-60(TB) leukemia = tested on: HL-60(TB) leukemia
ACHN renal = tested on: ACHN renal
K-562 leukemia = tested on: K-562 leukemia
MCF7 breast = tested on: MCF7 breast
SF-295 CNS = tested on: SF-295 CNS
M14 melanoma = tested on: M14 melanoma
SN12C renal = tested on: SN12C renal
CAKI-1 renal = tested on: CAKI-1 renal
NCI-H23 lung = tested on: NCI-H23 lung
SK-MEL-2 melanoma = tested on: SK-MEL-2 melanoma
SF-268 CNS = tested on: SF-268 CNS
MOLT-4 leukemia = tested on: MOLT-4 leukemia
SNB-75 CNS = tested on: SNB-75 CNS
OVCAR-4 ovarian = tested on: OVCAR-4 ovarian
M19-MEL melanoma = tested on: M19-MEL melanoma
DMS 114 small cell lung = tested on: DMS 114 small cell lung
LXFL 529 NSCLC = tested on: LXFL 529 NSCLC
DMS 273 small cell lung = tested on: DMS 273 small cell lung
DLD-1 colon = tested on: DLD-1 colon

C=C1C(=O)O[C@H]2C/C(C)=C/CC/C(C)=C/CC[C@@](C)(O)[C@@H](I)C[C@@H]12
TGI (SK-MEL-5 melanoma): 28.2 µM | TGI (SW-620 colon): 19.8 µM | TGI (LOX IMVI melanoma): 3.31 µM | TGI (KM12 colon): 18.5 µM | TGI (T-47D breast): 32.1 µM | TGI (COLO 205 colon): 24.9 µM | TGI (OVCAR-8 ovarian): 5.74 µM | TGI (UO-31 renal): 24.5 µM | TGI (NCI-H522 lung): 14.4 µM | TGI (NCI-H460 lung): 27.2 µM | TGI (SNB-19 CNS): 30 µM | TGI (IGROV1 ovarian): 10.2 µM | TGI (SK-MEL-28 melanoma): 30 µM | TGI (PC-3 prostate): 21.1 µM | TGI (UACC-62 melanoma): 23.9 µM | TGI (MDA-MB-435): 23.2 µM | TGI (U251 CNS): 33.4 µM | TGI (DU-145 prostate): 22.2 µM | TGI (NCI/ADR-RES ovarian): 24.7 µM | TGI (MALME-3M melanoma): 22.3 µM | TGI (SF-539 CNS): 12.3 µM | TGI (BT-549 breast): 6.62 µM | TGI (A549 NSCLC): 24.8 µM | TGI (OVCAR-3 ovarian): 24.9 µM | TGI (786-0 renal): 10.6 µM | TGI (HS 578T breast): 21.5 µM | TGI (EKVX NSCLC): 20.8 µM | TGI (HT29 colon): 26.8 µM | TGI (MDA-MB-231 breast): 26.9 µM | TGI (UACC-257 melanoma): 25.5 µM | TGI (HCT-15 colon): 20.1 µM | TGI (TK-10 renal): 23.6 µM | TGI (CCRF-CEM leukemia): 5.4 µM | TGI (NCI-H226 lung): 12.2 µM | TGI (A498 renal): 32 µM | TGI (RPMI-8226 leukemia): 12.9 µM | TGI (SR leukemia): 11.8 µM | TGI (HCT-116 colon): 12.3 µM | TGI (MDA-N): 13.3 µM | TGI (HCC-2998 colon): 25.6 µM | TGI (SK-OV-3 ovarian): 29.8 µM | TGI (RXF 393 renal): 13.2 µM | TGI (OVCAR-5 ovarian): 30.2 µM | TGI (HOP-92 NSCLC): 9.82 µM | TGI (HOP-62 NSCLC): 30.9 µM | TGI (HL-60(TB) leukemia): 14.6 µM | TGI (ACHN renal): 21.5 µM | TGI (K-562 leukemia): 13.5 µM | TGI (MCF7 breast): 25.1 µM | TGI (SF-295 CNS): 32.8 µM | TGI (M14 melanoma): 24.8 µM | TGI (SN12C renal): 18.1 µM | TGI (CAKI-1 renal): 22.4 µM | TGI (NCI-H23 lung): 2.43 µM | TGI (SK-MEL-2 melanoma): 25.8 µM | TGI (SF-268 CNS): 31.9 µM | TGI (MOLT-4 leukemia): > 26.2 µM | TGI (SNB-75 CNS): 25.1 µM | TGI (OVCAR-4 ovarian): 15.4 µM

Oc1ccc2c(c1)CC[N+]1=C2CCC2CCCC21 (centres undefined)
TGI (SK-MEL-5 melanoma): > 100 µM | TGI (SW-620 colon): > 100 µM | TGI (LOX IMVI melanoma): > 100 µM | TGI (COLO 205 colon): > 100 µM | TGI (OVCAR-8 ovarian): > 100 µM | TGI (UO-31 renal): > 100 µM | TGI (NCI-H460 lung): > 100 µM | TGI (SNB-19 CNS): > 100 µM | TGI (IGROV1 ovarian): > 100 µM | TGI (SK-MEL-28 melanoma): > 100 µM | TGI (UACC-62 melanoma): > 100 µM | TGI (M19-MEL melanoma): > 100 µM | TGI (SF-539 CNS): > 100 µM | TGI (A549 NSCLC): > 100 µM | TGI (OVCAR-3 ovarian): > 100 µM | TGI (DMS 114 small cell lung): > 100 µM | TGI (786-0 renal): > 100 µM | TGI (EKVX NSCLC): > 100 µM | TGI (HT29 colon): > 100 µM | TGI (LXFL 529 NSCLC): > 100 µM | TGI (HCT-15 colon): > 100 µM | TGI (TK-10 renal): > 100 µM | TGI (NCI-H226 lung): > 100 µM | TGI (HCT-116 colon): > 100 µM | TGI (HCC-2998 colon): > 100 µM | TGI (SK-OV-3 ovarian): > 100 µM | TGI (RXF 393 renal): > 100 µM | TGI (DMS 273 small cell lung): > 100 µM | TGI (OVCAR-5 ovarian): > 100 µM | TGI (HOP-92 NSCLC): > 100 µM | TGI (ACHN renal): > 100 µM | TGI (SF-295 CNS): > 100 µM | TGI (M14 melanoma): > 100 µM | TGI (SN12C renal): > 100 µM | TGI (CAKI-1 renal): > 100 µM | TGI (NCI-H23 lung): > 100 µM | TGI (SK-MEL-2 melanoma): > 100 µM | TGI (SF-268 CNS): > 100 µM | TGI (SNB-75 CNS): > 100 µM | TGI (OVCAR-4 ovarian): > 100 µM | TGI (DLD-1 colon): > 100 µM

O=c1[nH]c2cc3cccnc3c(Cl)c2nc1C(F)(F)F
TGI (SK-MEL-5 melanoma): 29.8 µM | TGI (SW-620 colon): > 100 µM | TGI (LOX IMVI melanoma): > 100 µM | TGI (KM12 colon): 63.7 µM | TGI (T-47D breast): 88.1 µM | TGI (COLO 205 colon): > 100 µM | TGI (OVCAR-8 ovarian): > 100 µM | TGI (UO-31 renal): > 100 µM | TGI (NCI-H522 lung): > 100 µM | TGI (NCI-H460 lung): > 100 µM | TGI (SNB-19 CNS): > 100 µM | TGI (IGROV1 ovarian): > 100 µM | TGI (SK-MEL-28 melanoma): > 100 µM | TGI (PC-3 prostate): > 100 µM | TGI (UACC-62 melanoma): > 100 µM | TGI (MDA-MB-435): > 100 µM | TGI (U251 CNS): > 100 µM | TGI (DU-145 prostate): > 100 µM | TGI (NCI/ADR-RES ovarian): > 100 µM | TGI (MALME-3M melanoma): > 100 µM | TGI (SF-539 CNS): > 100 µM | TGI (BT-549 breast): 86.7 µM | TGI (A549 NSCLC): > 100 µM | TGI (OVCAR-3 ovarian): > 100 µM | TGI (786-0 renal): > 100 µM | TGI (HS 578T breast): > 100 µM | TGI (EKVX NSCLC): > 100 µM | TGI (HT29 colon): > 100 µM | TGI (MDA-MB-231 breast): > 100 µM | TGI (UACC-257 melanoma): > 100 µM | TGI (HCT-15 colon): > 100 µM | TGI (TK-10 renal): > 100 µM | TGI (CCRF-CEM leukemia): 98.2 µM | TGI (NCI-H226 lung): > 100 µM | TGI (A498 renal): > 100 µM | TGI (RPMI-8226 leukemia): > 100 µM | TGI (SR leukemia): > 100 µM | TGI (HCT-116 colon): > 100 µM | TGI (MDA-N): > 100 µM | TGI (HCC-2998 colon): > 100 µM | TGI (SK-OV-3 ovarian): > 100 µM | TGI (RXF 393 renal): > 100 µM | TGI (OVCAR-5 ovarian): > 100 µM | TGI (HOP-92 NSCLC): 60.5 µM | TGI (HOP-62 NSCLC): > 100 µM | TGI (HL-60(TB) leukemia): > 100 µM | TGI (ACHN renal): > 100 µM | TGI (K-562 leukemia): > 100 µM | TGI (MCF7 breast): > 100 µM | TGI (SF-295 CNS): > 100 µM | TGI (M14 melanoma): > 100 µM | TGI (SN12C renal): > 100 µM | TGI (CAKI-1 renal): 65.4 µM | TGI (NCI-H23 lung): > 100 µM | TGI (SK-MEL-2 melanoma): > 100 µM | TGI (SF-268 CNS): > 100 µM | TGI (MOLT-4 leukemia): 83.2 µM | TGI (SNB-75 CNS): 90.1 µM | TGI (OVCAR-4 ovarian): 83 µM
